The assay has as its system Anguilla japonica leptocephali. In words: Induction of Anguilla japonica metamorphosis by T4 treatment in 23° C. breeding water. Format: in vivo. Further details: key: L: During life, no characteristics of metamorphosis seen.; Stage 1: Starting phase of metamorphosis. The rostral end is rounded, and intestinal degeneration starts.; Stage 2: Peak phase of metamorphosis. Intestinal degeneration becomes pronounced.; Stage 3: Late phase of metamorphosis.; Stage 4: Pre-glass eel stage. Almost the eel form, but the body height still remains. An excerpt:
Stage 1: Starting phase of metamorphosis. The rostral end is rounded, and intestinal degeneration starts.
Stage 2: Peak phase of metamorphosis. Intestinal degeneration becomes pronounced. In the second half, the anus reaches to near the last vertical blood vessel (VBV last).
Stage 3: Late phase of metamorphosis. The preanal length (PAL) becomes equal to or shorter than the last vertical blood vessel length (VBV last Length) (PAL VBV last Length). The body height is apparently low.
Stage 4: Pre-glass eel stage. Almost the eel form, but the body height still remains. Melanophores on the body surface or endogenous melanophores are not yet seen.
Elver stage: Juvenile stage. Food intake can be identified.
A thyroid hormone (e.g., thyroxine (T4)) is adjusted to 50 to 100 mM in a 1- to 2-mL volume messflask. As a solvent, known solvents (water, alcohol) can be used. Ethanol is preferably used as the solvent.
For example, using ethanol as a solvent, T4 adjusted to 50 mM is diluted 500-fold, 5,000-fold, and 50,000-fold, respectively, and adjusted to […], 1 μM, and 100 nM. A feed can be prepared in this manner.
Artificial seawater is added to a breeding vessel, and 1/1000 of the […] T4 is added to prepare […] T4 breeding water.
Half of the breeding water is replaced every two days with breeding water of the same concentration. In the case where the concentration is changed, for example, in the case of changing from 10 nM to 2 nM, 80% to the breeding water is removed, and unadjusted artificial seawater is newly added to make 1 L.
Leptocephali visually considered to have reached a total length of 40 mm (or may be 30 mm to 50 mm, may be 35 mm to 45 mm, or may also be 35 mm or more, 40 mm or more, or 45 mm or more) are selected, anesthetized with 2-phenoxyethanol, and then photographed, and the total length of each larva is measured using an image analyzing device.
The larvae are placed in 10 nM T4 breeding water and then placed in an incubator set at 23° C., and breeding is started. In first one week, observation is performed every two days, and half of the 10 nM T4 breeding water is replaced each time. The average amount of thyroid hormone in the breeding water in stage 1 is 1 nM to 100 nM, for example, and may also be 3 nM to 30 nM, or 5 nM to 20 nM.
For larvae visually judged to have reached the second half of stage 2, the concentration of the breeding water is changed. The breeding water is diluted 5-fold or 10-fold and adjusted to 2 nM or 1 nM T4, and breeding is continued. The average amount of thyroid hormone in the breeding water in stage 2 may be, as compared with the breeding water of stage 1, diluted 2-fold to 20-fold, diluted 3 to 15-fold, or diluted 5 to 10-fold as described above. The average amount of thyroid hormone in the breeding water in stage 2 is 0.1 nM to 20 nM, for example, and may also be 0.5 nM to 10 nM, 1 nM to 5 nM, or 1 nM to 2 nM.
For larvae visually judged to have reached stage 3, the breeding water is quickly changed 0.2 nM T4 breeding water, which is a 5-fold dilution of 1 nM T4 breeding water, and further changed to 0.1 nM T4 breeding water on the following day. […] Also, in larvae whose anus position has not reached the last vertical hemal spine, when they are judged to be on the brink of stage 3, the concentration is changed as above. The average amount of thyroid hormone in the breeding water in stage 3 may be, as compared with the breeding water of stage 2, diluted 2-fold to 50-fold, diluted 3 to 15-fold, diluted 4 to 6-fold, or diluted 5-fold as described above. The average amount of thyroid hormone in the breeding water in stage 3 is 0.01 nM to 2 nM, for example, and may also be 0.05 nM to 1 nM, 0.1 nM to 0.5 nM, or 0.1 nM to 0.2 nM. […] That is, the concentration may be changed such that the thyroid hormone becomes undetectable in the breeding water in the course of stage 3.
In stage 3, breeding is continuously performed in the 0.1 nM T4 breeding water. […]

Structures are written as SMILES.

For the molecule `N[C@@H](Cc1cc(I)c(Oc2cc(I)c(O)c(I)c2)c(I)c1)C(=O)O` [T4, thyroxine], the metamorphosis stage entry is, setting by setting: (individual Exp 5-4, 175 days old, total length 43.5 mm at start, c3 onward = treatment days 1,3,5,7,8,9,10,11,12,13,14,15,16,17,18, T4 (nM) 10,10,10,10,2,1,0.2,0.1,0.1,0.1,0.1,0.1, treatment day 1, T4 10 nM) “L”; (individual Exp 5-4, 175 days old, total length 43.5 mm at start, c3 onward = treatment days 1,3,5,7,8,9,10,11,12,13,14,15,16,17,18, T4 (nM) 10,10,10,10,2,1,0.2,0.1,0.1,0.1,0.1,0.1, treatment day 3, T4 10 nM) “L”; (individual Exp 5-4, 175 days old, total length 43.5 mm at start, c3 onward = treatment days 1,3,5,7,8,9,10,11,12,13,14,15,16,17,18, T4 (nM) 10,10,10,10,2,1,0.2,0.1,0.1,0.1,0.1,0.1, treatment day 5, T4 10 nM) 2; (individual Exp 5-4, 175 days old, total length 43.5 mm at start, c3 onward = treatment days 1,3,5,7,8,9,10,11,12,13,14,15,16,17,18, T4 (nM) 10,10,10,10,2,1,0.2,0.1,0.1,0.1,0.1,0.1, treatment day 7, T4 10 nM) 2; (individual Exp 5-4, 175 days old, total length 43.5 mm at start, c3 onward = treatment days 1,3,5,7,8,9,10,11,12,13,14,15,16,17,18, T4 (nM) 10,10,10,10,2,1,0.2,0.1,0.1,0.1,0.1,0.1, treatment day 8, T4 2 nM) 2; (individual Exp 5-4, 175 days old, total length 43.5 mm at start, c3 onward = treatment days 1,3,5,7,8,9,10,11,12,13,14,15,16,17,18, T4 (nM) 10,10,10,10,2,1,0.2,0.1,0.1,0.1,0.1,0.1, treatment day 9, T4 1 nM) 2. For the same molecule, the metamorphosis stage was determined as 2 (individual Exp 5-4, 175 days old, total length 43.5 mm at start, c3 onward = treatment days 1,3,5,7,8,9,10,11,12,13,14,15,16,17,18, T4 (nM) 10,10,10,10,2,1,0.2,0.1,0.1,0.1,0.1,0.1, treatment day 10, T4 0.2 nM); 2 (individual Exp 5-4, 175 days old, total length 43.5 mm at start, c3 onward = treatment days 1,3,5,7,8,9,10,11,12,13,14,15,16,17,18, T4 (nM) 10,10,10,10,2,1,0.2,0.1,0.1,0.1,0.1,0.1, treatment day 11, T4 0.1 nM); 3 (individual Exp 5-4, 175 days old, total length 43.5 mm at start, c3 onward = treatment days 1,3,5,7,8,9,10,11,12,13,14,15,16,17,18, T4 (nM) 10,10,10,10,2,1,0.2,0.1,0.1,0.1,0.1,0.1, treatment day 12, T4 0.1 nM); 3 (individual Exp 5-4, 175 days old, total length 43.5 mm at start, c3 onward = treatment days 1,3,5,7,8,9,10,11,12,13,14,15,16,17,18, T4 (nM) 10,10,10,10,2,1,0.2,0.1,0.1,0.1,0.1,0.1, treatment day 13, T4 0.1 nM); 3 (individual Exp 5-4, 175 days old, total length 43.5 mm at start, c3 onward = treatment days 1,3,5,7,8,9,10,11,12,13,14,15,16,17,18, T4 (nM) 10,10,10,10,2,1,0.2,0.1,0.1,0.1,0.1,0.1, treatment day 14, T4 0.1 nM); 4 (individual Exp 5-4, 175 days old, total length 43.5 mm at start, c3 onward = treatment days 1,3,5,7,8,9,10,11,12,13,14,15,16,17,18, T4 (nM) 10,10,10,10,2,1,0.2,0.1,0.1,0.1,0.1,0.1, treatment day 15, T4 0.1 nM). For the same molecule, the metamorphosis stage result is “L” (individual Exp 5-5, 174 days old, total length 36.1 mm at start, c3 onward = treatment days 1,3,5,7,8,9,10,11,12,13,14,15,16,17, T4 (nM) 10,10,10,10,10,10,10,2,0.2,0.1,0.1,0.1,0.1,0.1, treatment day 1, T4 10 nM); “L” (individual Exp 5-5, 174 days old, total length 36.1 mm at start, c3 onward = treatment days 1,3,5,7,8,9,10,11,12,13,14,15,16,17, T4 (nM) 10,10,10,10,10,10,10,2,0.2,0.1,0.1,0.1,0.1,0.1, treatment day 3, T4 10 nM); “L” (individual Exp 5-5, 174 days old, total length 36.1 mm at start, c3 onward = treatment days 1,3,5,7,8,9,10,11,12,13,14,15,16,17, T4 (nM) 10,10,10,10,10,10,10,2,0.2,0.1,0.1,0.1,0.1,0.1, treatment day 5, T4 10 nM); “L” (individual Exp 5-5, 174 days old, total length 36.1 mm at start, c3 onward = treatment days 1,3,5,7,8,9,10,11,12,13,14,15,16,17, T4 (nM) 10,10,10,10,10,10,10,2,0.2,0.1,0.1,0.1,0.1,0.1, treatment day 7, T4 10 nM); 2 (individual Exp 5-5, 174 days old, total length 36.1 mm at start, c3 onward = treatment days 1,3,5,7,8,9,10,11,12,13,14,15,16,17, T4 (nM) 10,10,10,10,10,10,10,2,0.2,0.1,0.1,0.1,0.1,0.1, treatment day 8, T4 10 nM); 2 (individual Exp 5-5, 174 days old, total length 36.1 mm at start, c3 onward = treatment days 1,3,5,7,8,9,10,11,12,13,14,15,16,17, T4 (nM) 10,10,10,10,10,10,10,2,0.2,0.1,0.1,0.1,0.1,0.1, treatment day 9, T4 10 nM). Further, the metamorphosis stage by setting is: (individual Exp 5-5, 174 days old, total length 36.1 mm at start, c3 onward = treatment days 1,3,5,7,8,9,10,11,12,13,14,15,16,17, T4 (nM) 10,10,10,10,10,10,10,2,0.2,0.1,0.1,0.1,0.1,0.1, treatment day 10, T4 10 nM) 2; (individual Exp 5-5, 174 days old, total length 36.1 mm at start, c3 onward = treatment days 1,3,5,7,8,9,10,11,12,13,14,15,16,17, T4 (nM) 10,10,10,10,10,10,10,2,0.2,0.1,0.1,0.1,0.1,0.1, treatment day 11, T4 2 nM) 3; (individual Exp 5-5, 174 days old, total length 36.1 mm at start, c3 onward = treatment days 1,3,5,7,8,9,10,11,12,13,14,15,16,17, T4 (nM) 10,10,10,10,10,10,10,2,0.2,0.1,0.1,0.1,0.1,0.1, treatment day 12, T4 0.2 nM) 3; (individual Exp 5-5, 174 days old, total length 36.1 mm at start, c3 onward = treatment days 1,3,5,7,8,9,10,11,12,13,14,15,16,17, T4 (nM) 10,10,10,10,10,10,10,2,0.2,0.1,0.1,0.1,0.1,0.1, treatment day 13, T4 0.1 nM) 3; (individual Exp 5-5, 174 days old, total length 36.1 mm at start, c3 onward = treatment days 1,3,5,7,8,9,10,11,12,13,14,15,16,17, T4 (nM) 10,10,10,10,10,10,10,2,0.2,0.1,0.1,0.1,0.1,0.1, treatment day 14, T4 0.1 nM) 3; (individual Exp 5-5, 174 days old, total length 36.1 mm at start, c3 onward = treatment days 1,3,5,7,8,9,10,11,12,13,14,15,16,17, T4 (nM) 10,10,10,10,10,10,10,2,0.2,0.1,0.1,0.1,0.1,0.1, treatment day 15, T4 0.1 nM) 3.

Source of the values: US20200093103A1, “BREEDING WATER FOR ANGUILLIFORMES AND METHOD FOR REARING ANGUILLIFORMES” (SHIN NIPPON BIOMEDICAL LABORATORIES, LTD., priority 2016, published 2020).
